Ends that are not written are not given here. * marks the point of attachment. Octanoyl = CCCCCCCC(=O)*
What was measured:
[1] = U.S. Pat. Nos. 8,222,217 and 8,318,664; cited from earlier work
[2] = system: C2C12 mouse muscular cell line; assay: ROS production (DCF-DA) in C2C12 cells subjected to oxidative stress; assay type: cell-based; conditions: for protective effect on C2C12 cells against oxidative stress: oxidative stress by hypoxia, AGEs, hyperglycemia or H2O2, 1 μmol/L; for retention of the functions of UAG: results provided herein
Protocol: Kinetic analysis of ROS production was evaluated by using DCF-DA (5-(and-6)-carboxy-2′,7′-dichlorofluorescein diacetate, 0.5 μmol/L final concentration) (Molecular Probe, Invitrogen) assay. C2C12 cells were cultured with 400 μg/ml Advanced Glycated End-product (AGE) or 25 mM glucose (high glucose HG) for 48 h, H2O2 (100 μM) for 2 h. In parallel experiments C2C12 cells were subjected to hypoxia (DMEM+2% FCS in a 5% CO2-95% N2 humidified atmosphere, yielding to 1% O2 concentrations for 24 h). UAG (1 μmol/L) AZP 531 (1 μmol/L) or AZP-502 (1 μmol/L) was added where indicated.

[3] = system: C57BL/6J mice; assay: Murine hind-limb ischemia model (foot damage score, histology, IF, TBARS); assay type: in vivo; conditions: for capillary density, ischemic vs contralateral control muscle of the same animals: ischemic vs normo-perfused muscle; for protection against ischemia-induced damage (in vivo effects): overall conclusion; for foot damage (functional score): unilateral hind-limb ischemia, i.p. daily from day 0 to day 21, vs saline
Protocol: (§1) Male C57BL/6J mice (Charles River Lab., Wilmington, Mass., USA) were anesthetized and unilateral hind limb ischemia was induced as described^42. The normo-perfused contralateral limb of each mouse was used as an internal control. After hind-limb ischemia, animals (18 mice per group) were treated by intra-peritoneal injection daily from 0 to day 21 with either saline, AG ([…]) or UAG ([…]). In selected experiments, mice received intramuscular injections of pre-miR oligonucleotides (5 mice/group). To induce toxic damage, 100 μl of 1% barium chloride (BaCl2, Sigma Aldrich) was injected unilaterally into the hind limb (9 mice). Mice were treated according to European Guidelines and policies as approved by the University of Turin Ethical Committee.
Semiquantitative estimation (by repeated measures analyzed with ANOVA and Newman-Keuls Multiple Comparison test) of foot damage was performed serially using the following classification: 3=dragging of foot (foot necrosis), 2=no dragging but no plantar flexion (foot damage), 1=plantar flexion but no toe flexion (toe damage), and 0=flexing the toes to resist gentle traction on the tail (no damage)^43.
(§2) Gastrocnemius muscle sections from ischemic or normo-perfused limbs were stained with hematoxylin and eosin for histological analysis. The proportion of fibers with central nuclei (regenerating fibers) was measured by MetaMorph software (Life Sciences Research Imaging Systems) in the injured area and the cross-sectional areas of the fibers in the injured and non-injured areas. For IF analysis, muscle sections were processed as described previously^44. The number of cells expressing the indicated markers or CD31 positive vessels was evaluated as previously described^34.
(§3) Intracellular ROS production was evaluated using DCF-DA (5-(and-6)-carboxy-2′,7′-dichlorofluorescein diacetate, […] final concentration) (Molecular Probe, Invitrogen) assay as previously described^23. The formation of TBARS was determined in muscles using the OXI-TEK kit (ZeptoMetrix Corp.) and a luminescence spectrometer (Bio-Rad Laboratories, Hercules, Calif.) with excitation set at 530 nm, emission at 550 nm to measure in-vivo oxidative stress levels^33.

[4] = system: SCs from double KO mice; assay: SCs from double KO mice (lacking GHSR1a and ghrelin genes) subjected to in vitro ischemia; assay type: cell-based; conditions: for protection of SCs from ROS generation: DCF-DA
Protocol: (§4) SCs were isolated from gastrocnemius muscles of C57BL/6J wild type mice subjected to ischemia or C57BL/6J mice lacking the GHSR1a and ghrelin genes (10 mice, kind gift of Professor M. Tschöp)^39. To obtain SCs, muscle samples were subjected to enzymatic digestion as described^45. In selected experiments, SCs were recovered from normo-perfused muscles and subjected to in-vitro ischemia in presence of saline, AG (1 μmol/L) or UAG (1 μmol/L). In-vitro ischemia was induced by incubating cells in DMEM+2% FCS at 5% CO2/95% N2 humidified atmosphere, yielding 1% O2 concentrations for 24 h^18. The in-vitro ischemia was also performed in the presence of SB202190 (1 μmol/L).
(§5) SC cell-cycle progression was evaluated by evaluating the percentage of PCNA-positive cells or by FACS analysis as previously described^46. The percentage of cells in each cell cycle phase was determined by ModFit LT software (Verity Software House. Inc, topsham, ME, USA). Celss proliferation was also assayed by evaluating the percentage of PCNA-positive cells by FACS analysis.
(§6) Cells were lysed and protein detection was obtained as previously described^47. Cells were lysed (50 mmol/L Tris HCl [pH 8.3], 1% Triton X-100, 10 mmol/L PMSF, 100 U/ml aprotinin, 10 μmol/L leupeptin) and protein concentrations were obtained as previously described^47. […] Densitometric analysis was used to calculate the differences in the fold induction of protein levels and normalized to tubulin, a actin or p38MAPK content. Values are reported as relative amount
as §3

[5] = system: primary SCs; assay: Primary SCs from normo-perfused muscles subjected to in vitro ischemia; assay type: cell-based, mice
Protocol: as §4, §5, §6, §3
(§7) Total RNA was isolated using TRIzol reagent (Invitrogen) from SCs recovered from muscles of treated animals or from SCs subjected to in-vitro ischemia. miR-221/222 expression was evaluated by qRT-PCR as previously described^48. Loss-of-function experiments were performed in SCs transfected for 48 h with anti-miRNA negative control, anti-miR-221/222 antagonists (Applied Biosystem, Foxter Cyto CA, USA), according to the manufacturer's instructions^48.
To obtain SOD-2 inactivation, SCs were transiently transfected with siRNA for SOD-2 or with duplex siRNAs (Qiagen, Valencia, Calif., USA) as previously described^44. Transfection was performed according to the manufacturer's instructions. Whole cell extracts were processed 48 h after transfection. Cell viability was evaluated at the end of each experiment. […]

[6] = system: satellite cells (SCs); assay: SCs recovered from ischemic muscles of treated mice (count, Western blot, DCF-DA, qRT-PCR); assay type: in vivo
Protocol: as §1, §4, §6, §3, §7

[7] = system: C57BL/6J mice; assay: Toxic damage induced by 1% barium chloride (BaCl2) in gastrocnemius muscle; assay type: in vivo; conditions: 1% BaCl2 injected into hind limb
Protocol: as §1, §2

[8] = target: GHSR-1a (Homo sapiens, UniProt Q92847); conditions: cited from earlier work
GHSR-1a, sequence (Q92847 whole entry): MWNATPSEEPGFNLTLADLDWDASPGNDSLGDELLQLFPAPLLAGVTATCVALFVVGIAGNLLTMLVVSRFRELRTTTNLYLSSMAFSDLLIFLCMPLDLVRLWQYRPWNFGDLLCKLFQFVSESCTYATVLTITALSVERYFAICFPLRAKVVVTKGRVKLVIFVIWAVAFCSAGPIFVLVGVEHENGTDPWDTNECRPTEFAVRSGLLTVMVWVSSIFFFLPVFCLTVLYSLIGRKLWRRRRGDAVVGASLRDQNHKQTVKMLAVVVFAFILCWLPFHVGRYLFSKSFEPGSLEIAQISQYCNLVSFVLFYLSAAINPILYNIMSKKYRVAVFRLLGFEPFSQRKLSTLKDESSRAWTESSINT

[9] = system: GH secretion; conditions: cited from earlier work
[10] = system: healthy volunteers; conditions: administered concomitantly in healthy volunteers; cited from earlier work
[11] = system: endothelial progenitor cells (EPCs); conditions: cited from earlier work
[12] = SB202190 1 μmol/L added, in vitro ischemia
[13] = SOD-2 silenced using siRNA, in vitro ischemia
[14] = in vitro ischemia 1% O2 24 h, 1 μmol/L

For “His-Gln-Arg (HQR; listed as Homo sapiens) [UAG (9-11)]”, the “activity on glucose, insulin and lipid metabolisms relative to UAG full length” value [1] is listed as “retain the activity of UAG full length”.

For “Glu-His-Gln-Arg-Val (EHQRV; listed as Homo sapiens) [UAG (8-12)]”, the “activity on glucose, insulin and lipid metabolisms relative to UAG full length” value [1] is given as “retain the activity of UAG full length”.

In the case of “Ser-Pro-Glu-His-Gln-Arg-Val-Gln (cycl) (SPEHQRVQ; cyclic; (1)..(8) Cyclic; listed as Homo sapiens) [UAG(6-13)cyclic]”, the “protective effect on C2C12 cells against oxidative stress” value (from here on “protective effect on C2C12 cells”) [2] is reported as “have a protective effect” and the “retention of the functions of UAG” value [2] is reported as “retain the functions of UAG”.

For SPEHQRVQ [UAG (6-13)], the “protective effect on C2C12 cells” value [2] is listed as “have a protective effect”, the “retention of the functions of UAG” value [2] is listed as “retain the functions of UAG” and the “activity on glucose, insulin and lipid metabolisms relative to UAG full length” value [1] is listed as “retain the activity of UAG full length”.

In the case of “AG: 28 amino acid peptide characterized by the presence of an n-octanoyl modification on the Ser3 residue (GSS(Octanoyl)FLSPEHQRVQQRKESKKPPAKLQPR; UniProt Q9UBU3 24-51, looked up) [reference compound]”, the “concentration of TBARS in ischemic muscles” value ([3]; gastrocnemius muscle) is reported as “Significant increases”, the “capillary density, ischemic vs contralateral control muscle of the same animals” value [3] is reported as “significantly lower capillary density” and the “protection against ischemia-induced damage (in vivo effects)” value [3] is reported as “failure to detect in vivo effects”. The “foot damage (functional score)” value [3] was “significantly higher” and the “protection of SCs from ROS generation” value [4] was “unlike AG”.

With `Oc1ccc(-c2nc(-c3ccncc3)c(-c3ccc(F)cc3)[nH]2)cc1` [SB202190, reference compound] the “MyoD and myogenin expression in SCs exposed to UAG” value [5, 12] was “prevented MyoD and myogenin expression” and the “cell-cycle entry of SCs exposed to UAG” value [5, 12] was “blocked cell-cycle entry”.

In the case of EHQRVQ [UAG (8-13)], the “activity on glucose, insulin and lipid metabolisms relative to UAG full length” value [1] is given as “retain the activity of UAG full length”.

For “His-Gln-Arg-Val (HQRV; listed as Homo sapiens) [UAG (9-12)]”, the “activity on glucose, insulin and lipid metabolisms relative to UAG full length” value [1] is listed as “retain the activity of UAG full length”.

For “Gly-Ser-Ser-Phe-Leu-Ser-Pro-Glu-His-Gln-Arg-Val-Gln-Gln-Arg-Lys-Glu-Ser-Lys-Lys-Pro-Pro-Ala-Lys-Leu-Gln-Pro-Arg (GSSFLSPEHQRVQQRKESKKPPAKLQPR; listed as Homo sapiens) [UAG]”, the “number of Pax-7/MyoD+ cells in ischemic muscles” value ([3]; day 7) was “increased number of Pax-7/MyoD+ cells”, the “Pax-7/MyoD+ cells in ischemic muscles” value ([3]; day 21) was “scattered Pax-7/MyoD+ cells were still present” and the “number of SOD-2/Pax-7+ cells in ischemic muscle” value ([3]; double immunostaining, day 7) was “increased number of SOD-2/Pax-7+ cells”. The “number of CD68-positive inflammatory cells” value ([3]; ischemic muscle) was “reduced number of CD68-positive inflammatory cells”, the “number of regenerating myofibers in gastrocnemius muscles” value ([3]; ischemic muscle) was “increased number of regenerating myofibers” and the “number of myogenin-positive cells in ischemic muscles” value ([3]; ischemic muscles) was “increased number of myogenin-positive cells”. The “number of functional vessels in ischemic muscles” value ([3]; ischemic muscles, compared to the other groups) was “larger number of functional vessels”, the “capillary density, ischemic vs contralateral control muscle of the same animals” value [3] was “no such differences were observed” and the “protection against ischemia-induced damage (in vivo effects)” value [3] was “appears to protect against ischemia-induced damage”. For the same molecule, the “foot damage (functional score)” value [3] was “damage was significantly higher in saline- and AG-treated groups than in the UAG-treated group”, the “ROS production in SCs from treated mice” value ([6]; DCF-DA assay) was “lower” and the “levels of phospho(p)-p38/MAPK protein in SCs” value ([6]; SCs from treated mice, Western blot) was “found to be higher”. The “SOD-2 protein expression in SCs from treated mice” value ([6]; Western blot) was “higher”, the “levels of p57kip2 protein in SCs from treated mice” value ([6]; Western blot) was “reduced” and the “number of Pax-7/MyoD/Myf5+ SCs isolated and counted ex vivo” value ([6]; ischemic muscles of treated mice) was “significantly increased number”. For the same molecule, the “expression of miR-221 and miR-222 in SCs recovered from muscles of treated mice” value ([6]; qRT-PCR, compared to controls) was “significantly increased”, the “regeneration of skeletal muscle after BaCl2 (ROS-independent damage)” value [7] was “regeneration of skeletal muscle was no longer observed” and the “cell-cycle entry or expression of SOD-2, Pax-7, MyoD, or myogenin” value ([5]; SCs transfected with anti-miR-221/222 antago-miRs (data not shown)) was “no longer had any effect”. The p-p38/MAPK levels ([5]; SCs transfected with anti-miR-221/222 antago-miRs, UAG (data not shown)) was “p-p38/MAPK levels were reduced”, the “UAG-induced miR-221/222 expression” value ([5]; SOD-2 knock-down, in vitro ischemia) was “prevents UAG-induced miR-221/222 expression” and the cell-cycle progression [5, 13] was “did not undergo cell-cycle progression”. For the same molecule, the p38/MAPK phosphorylation [5, 13] was “did not induce p38/MAPK phosphorylation”, the “protection of SCs against ROS generation” value [5, 13] was “did not protect SCs against ROS generation” and the “expression of Pax-7, MyoD” value [5, 14] was “induced expression”. For the same molecule, the expression of myogenin [5, 14] was “induced expression”, the “levels of pp38/MAPK” value [5, 14] was “increased levels” and the ROS production ([5]; in vitro ischemia, DCF-DA) was “ROS production was decreased”. For the same molecule, the PCNA expression ([5]; in vitro ischemia, FACS) was “increased PCNA expression”, the “number of cells in S phase” value ([5]; in vitro ischemia, FACS) was “increased” and the SOD-2 expression ([5]; in vitro ischemia, Western blot) was “SOD-2 expression increased”. For the same molecule, the SC cell-cycle progression [4] was “only UAG promoted SC cell-cycle progression”, the SOD-2 expression [4] was “induced SOD-2 expression” and the “p-p38/MAPK, Pax-7, MyoD, Myf5 and myogenin expression” value [4] was “induced”. The “protection of SCs from ROS generation” value [4] was “protected SCs from ROS generation”, the “protective effect on C2C12 cells” value [2] was “have a protective effect” and the “binding to GHSR-1a” value [8] was “fails to bind”. For the same molecule, the “effect on GH secretion” value [9] was “no physiological effect on GH secretion”, the “hyperglycemic effects of ghrelin” value [10] was “prevent the hyperglycemic effects of ghrelin” and the “protection of EPCs from oxidative stress (ROS generation)” value [11] was “only UAG protects endothelial progenitor cells (EPCs) from oxidative stress”.

In the case of “Glu-His-Gln-Arg (EHQR; listed as Homo sapiens) [UAG (8-11)]”, the “activity on glucose, insulin and lipid metabolisms relative to UAG full length” value [1] is given as “retain the activity of UAG full length”.
